“And” between values parts separate entries of the source, which are not always exact repeats. Equal values may be shown once. Read-outs that look alike come from different tables or passages of the source.
Columns and labels:
[1] = biological target: T1, HIV-1 WT RT (Human immunodeficiency virus type 1 group M subtype B, UniProt P03366); conditions: reported by Pauwels et al. (TIBO) and Buckheit et al. (thiazolobenzimidazole); read-out: IC50 for rC:dG; cited from earlier work
T1 construct: purified RT protein (0.015 mg/mL) was incubated in a 100 µL reaction mixture

[2] = tested on: HIV-1 variant L74V; test: Cytopathic cell killing assay, cross-resistance profile, infected MT-4 cells; assay type: cell-based
In short: (§1)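 Infected cultures (MOI chosen for complete cell death at 6 days, isolates matched by pre-titering) received serially diluted compound. Surviving cells were detected colorimetrically via XTT at 450 nm.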

[3] = tested on: HIV-1 variant V179D; test: as above; assay type: cell-based
In short: as §1

[4] = tested on: HIV-1 isolate 4xAZT/Y181C; test: as above; assay type: cell-based
In short: as §1

[5] = tested on: HIV-1 variant Y188C; test: as above; assay type: cell-based
In short: as §1

[6] = tested on: HIV-1 isolate 4xAZT; test: as above; assay type: cell-based
In short: as §1

[7] = tested on: HIV-1 variant K101E; test: as above; assay type: cell-based
In short: as §1

[8] = tested on: HIV-1 variant L100I; test: as above; assay type: cell-based
In short: as §1

[9] = tested on: HIV-1 variant A98G; test: as above; assay type: cell-based
In short: as §1

[10] = tested on: HIV-1 variant V108I; test: as above; assay type: cell-based
In short: as §1

[11] = tested on: HIV-1 variant K103N; test: as above; assay type: cell-based; conditions: isolate K103N
In short: as §1

[12] = tested on: HIV-1 variant Y181C; test: as above; assay type: cell-based
In short: as §1

[13] = tested on: HIV-1 variant V106A; test: as above; assay type: cell-based
In short: as §1

[14] = tested on: NL4-3 (WT); test: as above; assay type: cell-based, HIV-1
In short: as §1

[15] = tested on: HIV-1 isolate 4xAZT/L100I; test: as above; assay type: cell-based
Protocol: The various HIV isolates tested in the Figures are those corresponding to wild-type virus (NL4-3) and the other strains listed by their RT mutations. The three 4xAZT isolates included in the Figures represent AZT drug-resistant variants. […]
Briefly, in this method cells (e.g., the CEM-SS cell line, available from the NIAID AIDS Research and Reference Program [ARRRP]) were seeded at a density of 5 x 10^3 cells/well, into the wells of a 96-well microtiter plate. The cells were then infected with HIV virus (either mutant or WT), at a multiplicity of infection (MOI) previously determined to provide complete cell killing by 6 days of culture post-infection (e.g., MOI of 0.01-0.05). Each of the HIV isolates was pre-titered to induce equivalent levels of infection based on cell killing or virus production, prior to their use in these assays. A range of test compound concentrations was added to the wells in triplicate (e.g., serial half-log dilutions) to evaluate inhibition of HIV infection. Controls for each assay included drug controls (drug colorimetric control wells), drug cytotoxicity control wells (cells with drug), virus control wells (cells with virus), and cell viability controls (cells only). Positive control drugs (e.g., AZT and ddC) were also run in parallel.
After six days of incubation at 37°C, cell viability was determined spectrophotometrically at 450 nm for each well, using the metabolic reduction of XTT to a soluble colored formazan. (See, Gartner and Popovic, "Virus Isolation and Production, in Aldovini and Walker (eds.), Techniques in HIV Research, Stockton Press, NY, pp. […] [1991]; and Nara and Fischinger, "Quantitative Infectivity Assay for HIV-1 and HIV-2," Nature 332:469-470 [1988]).
The in vitro therapeutic index (TI50) was defined as the fold-difference between the EC50 and IC50.

[16] = biological target: T1, HIV-1 WT RT; test: biochemical
[17] = tested on: HIV-1 variant Y188H; test: Cytopathic cell killing assay, cross-resistance profile, infected MT-4 cells; assay type: cell-based
In short: as §1

[18] = tested on: HIV-1 variant M184l; test: as above; assay type: cell-based
In short: as §1

[19] = tested on: WT virus (NL4-3); test: microbe, parasite or virus in culture; assay type: cell-based, HIV-1
In short: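 CEM-SS cells (5 x 10^3/well) infected with HIV-1 at an MOI giving complete killing by day 6 (e.g., 0.01-0.05), with serial half-log compound dilutions in triplicate. After 6 days at 37°C, viability read by XTT reduction at 450 nm. CIC50 derived from protection against cytopathic killing.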

[20] = Human immunodeficiency virus 1, MT4, Table 10 (values in µM), isolate K101E
[21] = Human immunodeficiency virus 1, MT4, Table 10 (values in µM), isolate L1001
[22] = Human immunodeficiency virus 1, MT4, Table 10 (values in µM), isolate V108l
[23] = Human immunodeficiency virus 1, MT4, Table 10 (values in µM)
[24] = Human immunodeficiency virus 1, NL43, MT4, Table 10 (values in µM), isolate NL4-3 (WT)
[25] = Human immunodeficiency virus 1, MT4

CC1Cn2c(=O)[nH]c3cccc(c32)CN1 (centres unmarked) [TIBO, 4,5,6,7-tetrahydro-5-methylimidazo[4,5,1-jk][1,4]benzodiazepin-2(1H)-one, reference compound]
IC50 [1]: 0.06 µM | EC50 ([2]; Human immunodeficiency virus 1, MT4, Table 4, isolate L74V): 0.2 µM | EC50 ([2]; Human immunodeficiency virus 1, MT4, Table 9, isolate 1.74 V): 0.2 µM | EC50 ([3]; Human immunodeficiency virus 1, MT4, Table 4, isolate V179D): 6.2 µM | EC50 ([3]; Human immunodeficiency virus 1, MT4, Table 9, isolate V179D): 6.2 µM | EC50 ([4]; Human immunodeficiency virus 1, MT4, Table 4, isolate 4xAZT/Y181C): 2 µM | EC50 ([4]; Human immunodeficiency virus 1, MT4, Table 9, isolate 4XAZT /Y181C): 2 µM | EC50 ([5]; Human immunodeficiency virus 1, MT4, Table 4, isolate Y188C): > 17.4 µM | EC50 ([5]; Human immunodeficiency virus 1, MT4, Table 9, isolate Y188C): > 20 µM | EC50 ([5]; Human immunodeficiency virus 1, MT4, Table 10 (values in µM), isolate Y188C): > 17.4 µM | EC50 ([6]; Human immunodeficiency virus 1, MT4, Table 4, isolate 4xAZT): 0.3 µM | EC50 ([6]; Human immunodeficiency virus 1, MT4, Table 9, isolate 4XAZT): 0.3 µM | EC50 ([7]; Human immunodeficiency virus 1, MT4, Table 4, isolate K101E): 17.4 µM | EC50 ([7]; Human immunodeficiency virus 1, MT4, Table 9, isolate KIOIE): > 10 µM | EC50 [7, 20]: 17.4 µM | EC50 ([8]; Human immunodeficiency virus 1, MT4, Table 4, isolate L1001): 17.4 µM | EC50 ([8]; Human immunodeficiency virus 1, MT4, Table 9, isolate L1001): > 10 µM | EC50 [8, 21]: 17.4 µM | EC50 ([9]; Human immunodeficiency virus 1, MT4, Table 4, isolate A98G): 11 µM | EC50 ([9]; Human immunodeficiency virus 1, MT4, Table 9, isolate A98G): 11 µM | EC50 ([10]; Human immunodeficiency virus 1, MT4, Table 4, isolate V108I): 2.4 µM | EC50 ([10]; Human immunodeficiency virus 1, MT4, Table 9, isolate V1081): 2.4 µM | EC50 [10, 22]: 2.4 µM | EC50 ([11]; Human immunodeficiency virus 1, MT4, Table 4): 17.4 µM | EC50 ([11]; Human immunodeficiency virus 1, MT4, Table 9): > 10 µM | EC50 [11, 23]: 17.4 µM | EC50 ([12]; Human immunodeficiency virus 1, MT4, Table 4, isolate Y181C): 4.2 µM | EC50 ([12]; Human immunodeficiency virus 1, MT4, Table 9, isolate Y181C): 4.2 µM | EC50 ([12]; Human immunodeficiency virus 1, MT4, Table 10 (values in µM), isolate Y181C): 4.2 µM | EC50 ([13]; Human immunodeficiency virus 1, MT4, Table 4, isolate V106A): 12.5 µM | EC50 ([13]; Human immunodeficiency virus 1, MT4, Table 9, isolate V106A): > 10 µM | EC50 ([14]; Human immunodeficiency virus 1, NL43, MT4, Table 4, isolate NL4-3 (WT)): 0.3 µM | EC50 ([14]; Human immunodeficiency virus 1, NL43, MT4, Table 9, isolate NL4.3): 0.3 µM | EC50 [14, 24]: 0.3 µM | EC50 ([15]; Human immunodeficiency virus 1, MT4, Table 4, isolate 4xAZT/L.1001): > 17.4 µM | EC50 ([15]; Human immunodeficiency virus 1, MT4, Table 9, isolate 4XAZT /L1001): > 20 µM

CCc1cccc2c1nc(-c1c(F)cccc1F)n2Cc1c(F)cccc1F [compound 47, 1-(2,6-difluorobenzyl)-2-(2,6-difluorophenyl)-4-ethylbenzimidazole]
IC50 [16]: 17.5 µM | inhibition at 1 µM ([16]; read-out: %inhibn (1µM)): 50% | EC50 [2, 25]: 1.5 µM | EC50 [3, 25]: 1.8 µM | EC50 [4, 25]: > 20 µM | EC50 [5, 25]: 5.5 µM | EC50 [6, 25]: 1 µM | EC50 ([7]; Human immunodeficiency virus 1, MT4, Table 8, isolate K101E): > 20 µM | EC50 [7, 20]: > 50 µM | EC50 ([8]; Human immunodeficiency virus 1, MT4, Table 8, isolate 1.1001): 0.6 µM | EC50 [8, 21]: 2.48 µM | EC50 [9, 25]: 8 µM | EC50 ([10]; Human immunodeficiency virus 1, MT4, Table 8, isolate V1081): 3 µM | EC50 [10, 22]: > 50 µM | EC50 ([11]; Human immunodeficiency virus 1, MT4, Table 8): > 20 µM | EC50 [11, 23]: > 50 µM | EC50 [12, 25]: 7.18 µM | EC50 [17, 25]: 13.2 µM | EC50 [18, 25]: 0.96 µM | EC50 [13, 25]: > 20 µM | EC50 ([14]; Human immunodeficiency virus 1, NL43, MT4, Table 8, isolate N1.43): 1.1 µM | EC50 [14, 24]: 0.9 µM | EC50 ([19]; Human immunodeficiency virus 1, NL43, CEM-SS): 0.82 µM | EC50 [15, 25]: 0.6 µM

4-amino-1-(2,6-difluorobenzyl)-2-(2,6-difluorophenyl)benzimidazole [compound 53]
IC50 ([16]; HIV-1 WT RT, read-out: IC50): 0.28 µM | IC50 ([16]; Table 7, HIV-1 WT RT, read-out: IC50): 0.28 µM | %inhibn (1µM) ([16]; Table 7, WT HIV-1 RT, 1 µM drug): 69% | IC50 ([16]; Table 11, WT RT, read-out: IC50): 0.28 µM | EC50 ([2]; Table 8, isolate 1.74V, read-out: EC50): 0.3 µM | EC50 ([3]; Table 8, isolate V179D, read-out: EC50): 6 µM | EC50 ([4]; Table 8, isolate 4XAZT /Y181C, read-out: EC50): > 10 µM | EC50 ([5]; Table 8, isolate Y 188C, read-out: EC50): 2.7 µM | EC50 ([5]; Table 10 (values in µM), isolate Y188C, read-out: EC50): 2 µM | EC50 ([6]; Table 8, isolate 4XAZT, read-out: EC50): 0.2 µM | EC50 ([7]; Table 8, isolate K101E, read-out: EC50): > 20 µM | EC50 ([8]; Table 8, isolate 1.1001, read-out: EC50): 1.3 µM | EC50 ([9]; Table 8, isolate A9SG, read-out: EC50): 1.5 µM | EC50 ([10]; Table 8, isolate V1081, read-out: EC50): > 20 µM | EC50 ([11]; Table 8, read-out: EC50): > 20 µM | EC50 ([17]; Table 10 (values in µM), isolate Y188H, read-out: EC50): > 50 µM | EC50 ([18]; Table 10 (values in µM), isolate M184l, read-out: EC50): 0.65 µM | EC50 ([13]; Table 8, isolate V 106A, read-out: EC50): > 20 µM | EC50 ([14]; Table 8, isolate N1.43, read-out: EC50): 0.5 µM | EC50 ([14]; Table 10 (values in µM), isolate NL4-3 (WT), listed as NH2, read-out: EC50): 0.68 µM and 0.4 µM | EC50 ([19]; Table 7, concentration reducing cell killing or virus production by 50%, HIV-1 WT, read-out: EC50): 0.46 µM | EC50 ([19]; Table 11, CEMSS/NL4-3, NRVC = reduction in viral CPE not seen (footnote), read-out: EC50): 0.46 µM | EC50 ([15]; Table 8, isolate 4XA7T L 1001, read-out: EC50): 0.3 µM

Reference: patent publication EP1210336B1, “SUBSTITUTED BENZIMIDAZOLES AS NON-NUCLEOSIDE INHIBITORS OF REVERSE TRANSCRIPTASE” (THE UNITED STATES OF AMERICA, as represented by the …, priority 1999, dated 2001)
